Data from paper PMC7954794, “Protein context shapes the specificity of SH3 domain-mediated interactions in vivo” (Nature Communications, 2021).

Key:
Assay type in all cases: cell-based, Saccharomyces cerevisiae
BBC1 = experiment: DHFR-PCA on solid medium, bait BBC1 (Fig. 1B); details: bait BBC1, label = prey; for medrep (log2 median colony size normalized to plate background, PCA score): 2-4 replicates; for Ratio (SH3-deleted/WT medrep): only significant differences showed, PPIs completely lost have a ratio of 0.1 and the gained PPIs 2.5
Description: (§1) Supplement 41467_2021_21873_MOESM8_ESM.xlsx, sheet "Fig1B" | column: medsize; medrep; Ratio; Score

[1] = test system: 575 putative partners (preys) of 22 WT SH3-containing proteins; experiment: DHFR-PCA on solid medium, WT and SH3-deleted baits (Fig. 1B); parameters: key to Score: 0: SH3-independent; 1: SH3-dependent PPIs; 2: SH3-inhibited PPIs; details: for medrep (log2 median colony size normalized to plate background, PCA score): label = prey; for Ratio (SH3-deleted/WT medrep): only significant differences shown, PPIs completely lost have a ratio of 0.1, gained PPIs 2.5
Description: To assess the requirement of SH3 domains for PPIs in vivo, we first measured binary interactions between 22 WT SH3-containing proteins (Supplementary Fig. 1A) as baits and 575 putative partners from their interconnected signaling networks using the dihydrofolate reductase protein–fragment complementation assay (DHFR-PCA) in the budding yeast Saccharomyces cerevisiae. About 33% (202/607) of the PPIs detected were described before, mostly by direct methods (Supplementary Fig. 1B, C)[11]. We repeated the experiments with baits in which the SH3s were individually replaced with a flexible linker by genome editing (SH3 domain deletion/stuffing, Fig. 1A). The stuffer DNA sequence ([…]) codes for a small flexible poly-Gly with Ser peptide ([…]) that is inspired by previous experiments[12],[13]. About a third of the SH3-containing protein interactome is qualitatively or quantitatively SH3-dependent (171 PPIs out of 607, Fig. 1B and Supplementary Fig. 1B, C). We validated the vast majority of the quantitative changes in low-throughput experiments and excluded that this is simply due to changes in protein abundance in most cases (Supplementary Fig. 1D–G). SH3-binding motifs[14] are more frequent in the SH3-dependent PPI partners when compared to sequences from random proteins, SH3-independent PPI partners or PPI partners that are stronger or gained following SH3 deletions (p values = 1.5 × 10^−17, 0.0038 and 2.1 × 10^−08, respectively; Mann–Whitney test, one-tailed, Fig. 1C). The changes we measure are therefore enriched for PPIs that depend on the direct interactions of the domains with the PPI partners.
The complete list of strains, primers, and gRNAs used in this study can be found in Supplementary Tables 1–3. All constructed yeast strains were validated by polymerase chain reaction (PCR) and confirmed by Sanger sequencing of the locus of interest. Bait strains for the DHFR-PCA experiments were constructed as follows. The genes of interest were fused at their genomic 3′ end by replacing the stop codon with a linker ([…]), the DHFR F[1,2] followed by a smaller linker (GGGGS), a 1× FLAG tag ([…]) and the NATMX4 resistance cassette via homologous recombination (all amplified from pAG25-DHFR[1,2]-linker-FLAG). The set of 615 prey strains (DHFR F[3] fusions in the BY4742 background) were retrieved from the Yeast Protein Interactome Collection[43] with the exception of 73 that were reconstructed (Supplementary Tables 1 and 2). Knockout strains were taken from the yeast knockout collection except for ABP1, BEM1, BZZ1, and SLA1, which were reconstructed by replacing the ORFs with the NATMX4 resistance cassette by homologous recombination in the BY4741 background.
Yeast SH3 domain genomic sequences were replaced by CRISPR–Cas9 genome editing. Each SH3 domain (as defined by the SMART database V8.0 except for Ysc84 SH3 (as defined by PROSITE), see Source Data for all SH3 sequences and Supplementary Table 1 for primers used) was specifically targeted by one gRNA[46]. Yeast competent cells were co-transformed with a pCAS plasmid (Addgene plasmid 60847[47]) expressing both the gRNA of interest and Streptococcus pyogenes Cas9[46] and a donor DNA sequence (stuffer) with 60 bp homology arms surrounding the SH3 DNA sequence. The Stuffer DNA was either PCR amplified or digested from a plasmid. The stuffer DNA sequence ([…]) codes for a small flexible linker ([…]) inspired by protein linkers used in structural biology[12],[13]. This type of linker is frequently used for fusing proteins without affecting the structure of the linked proteins.
The overall DHFR-PCA pipeline is based on Tarassov et al.[43] and the procedures have also been published as a visualized protocol. The screens were performed with robotically manipulated pin tools (BM5-SC1, S&P Robotics Inc.). First, the preys were cherry-picked from 96-well plates to omnitrays in a 384 format on YPD + HPH solid media. […]

ABP1 = experiment: DHFR-PCA on solid medium, bait ABP1 (Fig. 1B); details: bait ABP1, label = prey; for medrep (log2 median colony size normalized to plate background, PCA score): 2-4 replicates
Description: as §1

Abp1 PPIs = experiment: DHFR-PCA of Abp1 SH3-swapped baits (Fig. 2B-D, S2C, S2F); details: Fig2B; bait ABP1, label = prey; Replicates 4
Description: Having determined that multiple PPIs require SH3s, we asked whether the latter establish PPI specificity independently from their host proteins by swapping domains (Fig. 2A). Using the second round of genome editing, we individually replaced Abp1 SH3 with the 27 yeast SH3s and 3 human Abp1 orthologs’ SH3s (CTTN, HCLS1, and DBNL, Fig. 2B). The reintroduction of its own SH3 (Abp1SH3 in Abp1) reconstitutes almost perfectly Abp1’s interaction profile (Kendall’s τ = 0.93, Fig. 2B). […] No homologous SH3 domain fully re-establishes the normal Abp1 PPI profile (Fig. 2B and Supplementary Fig. 2C). However, we observe a significant correlation (cophenetic correlation = 0.20, p value = 0.005, Fig. 2C) between the similarity of PPI profiles (Fig. 2B) and the sequence similarity of the SH3s. […] Nonetheless, a subset of SH3-dependent PPIs is only observed with the endogenous domain. For instance, Hua2 and App1, both well-characterized partners of Abp1[14],[18],[19], are only detected when Abp1 contains its own SH3 (WT or swapped via editing). A given SH3 may therefore not be fully replaceable with other paralogous or orthologous domains. This pattern is confirmed by cellular growth phenotypic analyses (Supplementary Fig. 2D, E). PPIs, SH3 sequence similarity, and growth profiles under stress conditions are correlated (Supplementary Fig. 2D, E). This relationship is particularly clear when analyzing growth on media supplemented with hygromycin.
The stuffing of YSC84 SH3 rendered the strain sterile and was therefore not used for this study as the assays require crosses. For genes containing two SH3s (BZZ1 and BEM1), a combination of this first stuffer with a second one ([…]) coding for a highly similar linker ([…]) was used, which allowed targeting each SH3 position independently. The two N-terminal domains of SLA1, which are separated by six nucleotides, were stuffed by a single stuffer. Cells containing pCAS were selected via the G418 resistance cassette from the plasmid on YPD plates (YPD + NAT 100 μg/ml (DHFR F[1,2] selection) + G418 200 µg/mL (Bioshop Canada)). Colonies were randomly selected and grown in YPD media without G418 to allow plasmid loss. The correct insertion of the stuffer was validated by PCR and Sanger sequencing. The SH3-swapped, -shuffled, and -mutated strains were constructed following a second CRISPR–Cas9 editing step with the same procedures. The stuffer sequences were targeted by specific gRNAs (one gRNA per stuffer) and replaced by PCR amplified specific SH3 (with 40 bp homology arms) or libraries of mutated SH3 domains for Deep Mutational Scanning (DMS) with 78 bp flanking homology regions. Validation of the SH3 domain insertions was done as we previously described except for DMS libraries (see below).
The overall DHFR-PCA pipeline is based on Tarassov et al.[43] and the procedures have also been published as a visualized protocol. The screens were performed with robotically manipulated pin tools (BM5-SC1, S&P Robotics Inc.). First, the preys were cherry-picked from 96-well plates to omnitrays in a 384 format on YPD + HPH solid media. Plates were then combined into the 1536 format on YPD + HPH. The array was constituted of 575 preys previously shown to interact physically with at least one SH3-containing protein as reported in BioGRID V3.4.16 along with 40 negative controls. The prey array comprised a border of control strains of two rows and two columns corresponding to the PPI between LSM8-DHFR F[1,2] and CDC39-DHFR F[3]. This double border was used to remove border effects. Preys are present in duplicate at a randomized position in the 1536 array (except for YAL041W which is present four times per array). Baits were crossed with two prey plates, resulting in four independent bait–prey tests for each PPI. Baits were grown in liquid YPD + NAT and then transferred on solid YPD + NAT omnitrays. They were then replicated on YPD + NAT omnitrays in 1536 array format. […]

[2] = bait SLA1-2, DHFR-PCA, Replicates 4 (2 for YCR009C, YDR388W)
[3] = bait SLA1-3, DHFR-PCA, Replicates 4 (2 for YCR009C, YDR388W, YIL033C)

Row | Substance | medrep (log2 median colony size normalized to plate background, PCA score) (BBC1) | Ratio (SH3-deleted/WT medrep) (BBC1) | medrep (log2 median colony size normalized to plate background, PCA score) [1, 2] | Score ([1]; bait SLA1-2, label = prey) | Ratio (SH3-deleted/WT medrep) ([1]; bait SLA1-2, label = prey) | medrep (log2 median colony size normalized to plate background, PCA score) [1, 3] | Score ([1]; bait SLA1-3, label = prey) | medrep (log2 median colony size normalized to plate background, PCA score) (ABP1) | medrep (log2 median colony size normalized to plate background) (Abp1 PPIs) | medsize (median colony size) (Abp1 PPIs) | Ratio (SH3-deleted/WT medrep) (ABP1; only significant differences showed, PPIs completely lost have a ratio of 0.1 and the gained PPIs 2.5)
1 | YOR181W | 1.945 | 0.4732 | 2.241 | 1 | 0.4606 | 4.865 | 0 | 4.4673 | – | – | –
2 | YNL138W | 2.102 | 0.1 | 2.731 | 1 | 0.1 | 2.731 | 0 | 5.358 | – | – | –
3 | YFR024C-A (PKAVALYSFAGEESGDLPFRKGDVITILKKSDSQNDWWTGRVNGREGIFPANYVELV) | 1.926 | 0.1 | – | – | – | 4.788 | 0 | 5.192 | – | – | –
4 | YDR388W (ETVTALYDYQAQAAGDLSFPAGAVIEIVQRTPDVNEWWTGRYNGQQGVFPGNYVQLNK) | 1.395 | 0.1 | 1.88 | 1 | 0.1 | 1.88 | 0 | 4.711 | – | – | –
5 | YLR370C | 4.024 | – | 2.335 | 1 | 0.5146 | 4.537 | 0 | 5.077 | – | – | –
6 | YER166W | – | – | 2.422 | 1 | 0.1 | 2.422 | 0 | 3.035 | – | – | –
7 | YIL062C | 4.09 | – | – | – | – | 4.44 | 0 | 5.265 | – | – | –
8 | YHR016C (SATPTAVALYNFAGEQPGDLAFKKGDVITILKKSDSQNDWWTGRTNGKEGIFPANYVRVS) | – | – | 1.614 | 1 | 0.4201 | 3.842 | 0 | 4.9581 | – | – | –
9 | YBL017C | – | – | – | – | – | – | – | 2.711 | 1.647 | 447.5 | 1.6455
10 | YPR184W | – | – | 2.1199 | 1 | 0.1 | 2.1199 | 0 | 3.5 | – | – | –
